Experimental data reported in patent publication US10336701B2, “Pyridin-2-one derivatives of formula (II) useful as EP3 receptor antagonists” (Janssen Pharmaceutica NV, priority 2017, dated 2019).

Molecular target: T1, EP3 receptor (Homo sapiens, UniProt P43115)
T1 construct: purchased Millipore HTS092M
T1 sequence (P43115 1-390): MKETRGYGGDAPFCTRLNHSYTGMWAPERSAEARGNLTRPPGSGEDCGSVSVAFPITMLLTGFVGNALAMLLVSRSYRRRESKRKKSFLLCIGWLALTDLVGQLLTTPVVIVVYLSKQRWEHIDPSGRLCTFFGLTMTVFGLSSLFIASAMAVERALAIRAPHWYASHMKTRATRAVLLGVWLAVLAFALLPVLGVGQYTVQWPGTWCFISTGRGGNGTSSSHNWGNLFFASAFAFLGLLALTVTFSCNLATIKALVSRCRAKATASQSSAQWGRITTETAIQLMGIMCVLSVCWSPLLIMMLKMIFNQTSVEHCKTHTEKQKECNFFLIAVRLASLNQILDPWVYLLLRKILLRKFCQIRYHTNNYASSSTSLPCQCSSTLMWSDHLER
Test: [3H]-PGE2 binding assay (EP3 competition binding)
Details: [3H]-PGE2 Binding Ki
Protocol: EP3 competition binding was determined using the following materials and experimental conditions:
Beads=Perkin Elmer RPNQ0001
EP3 membrane=Millipore HTS092M
Membrane concentration=2 μg/well
Beads concentration=0.25 mg/well
[3H]-PGE2=2 nM; DMSO—0.1%
Binding buffer=50 mM Tris, 10 mM MgCl2, 1 mM • EDTA, PH 7.4.
The binding buffer was removed from refrigeration (@ 4° C.) and allowed to warm to room temperature. Test compound (@ stock concentration of […] in DMSO) was serial dilutes (1:3) with 100% DMSO using Echo plate. Diluted test compound (30 nL) was dispensed to the 384-well assay plate (using Echo 550 Labcyte System). To each well was then added assay buffer (5 μl) and each well was spun. Beads were weighed out, dissolved in assay buffer to a concentration of 0.25 mg/15 μl. Original membrane was diluted with assay buffer to a concentration of 2 μg/5 μl. […] To each test well were then added diluted [3H]-PGE2 (5 μl), diluted membrane (5 μl), and dissolved beads (15 μl). The plate was equilibrated at room temperature on a plate shaker for 2 hours and then read with a TOPCOUNT scintillation plate reader. Results were analyzed using a Prism program with non-linear regression, one-site fit for Ki.

Structure (SMILES)	Ki [nM]
CCn1ncc2c(F)cc(-c3ccc(C4CC5CCC(C4)N5S(=O)(=O)C(C)C)c(=O)[nH]3)cc21 (stereo not drawn) [compound 206, 6-(1-ethyl-4-fluoro-1H-indazol-6-yl)-3-(8-(isopropylsulfonyl)-8-azabicyclo[3.2.1]octan-3-yl)pyridin-2(1H)-one]	25
CCn1ncc2c(F)cc(-c3ccc(C4CC5CCC(C4)N5C(=O)NC(C)C)c(=O)[nH]3)cc21 (stereo not drawn) [compound 208, 3-(6-(1-ethyl-4-fluoro-1H-indazol-6-yl)-2-oxo-1,2-dihydropyridin-3-yl)-N-isopropyl-8-azabicyclo[3.2.1]octane-8-carboxamide]	158

Same assay, conditions: read-out: [3H]-PGE2 Binding Ki

Structure (SMILES)	Ki [nM]
CCC(CC)(c1nnc[nH]1)c1ccc(-c2ccc3c(F)cc(F)cc3c2)[nH]c1=O [compound 33, 3-(3-(4H-1,2,4-triazol-3-yl)pentan-3-yl)-6-(5,7-difluoronaphthalen-2-yl)pyridin-2(1H)-one]	735
CCn1ncc2c(F)cc(-c3[nH]c(=O)c(C(/C=C4\CCNC4=O)(CC)CC)cc3F)cc21 [compound 47, (E)-6-(1-ethyl-4-fluoro-1H-indazol-6-yl)-5-fluoro-3-(3-((2-oxopyrrolidin-3-ylidene)methyl)pentan-3-yl)pyridin-2(1H)-one]	25
CCn1ncc2c(F)cc(-c3ccc(C(C(C)C)n4cnnn4)c(=O)[nH]3)cc21 (stereo not drawn) [Compound #171, 6-(1-ethyl-4-fluoro-1H-indazol-6-yl)-3-(2-methyl-1-(1H-tetrazol-1-yl)propyl)pyridin-2(1H)-one]	29
CCn1ncc2c(F)cc(-c3ccc(C(CC)(CC)c4nnc(C(C)C)o4)c(=O)[nH]3)cc21 [Compound #38, 6-(1-ethyl-4-fluoro-1H-indazol-6-yl)-3-(3-(5-isopropyl-1,3,4-oxadiazol-2-yl)pentan-3-yl)pyridin-2(1H)-one]	13
CCn1ncc2c(F)cc(-c3ccc(C(CC)(CC)c4nnc(C)o4)c(=O)[nH]3)cc21 [Compound #271, 6-(1-ethyl-4-fluoro-1H-indazol-6-yl)-3-(3-(5-methyl-1,3,4-oxadiazol-2-yl)pentan-3-yl)pyridin-2(1H)-one]	6
CCn1ncc2c(F)cc(-c3ccc(C4CCC5(CCNC5=O)CC4)c(=O)[nH]3)cc21 (stereo not drawn) [compound 207, 8-(6-(1-ethyl-4-fluoro-1H-indazol-6-yl)-2-oxo-1,2-dihydropyridin-3-yl)-2-azaspiro[4.5]decan-1-one]	15
CC(C)C(/C=C1/OC(=O)NC1=O)c1ccc(-c2ccc3cccc(C#N)c3c2)[nH]c1=O (stereo not drawn) [compound 310, (E)-7-(5-(1-(2,4-dioxooxazolidin-5-ylidene)-3-methylbutan-2-yl)-6-oxo-1,6-dihydropyridin-2-yl)-1-naphthonitrile]	71
CCn1ncc2c(F)cc(-c3ccc(C(CC)(CC)c4nnc(N(C)C)o4)c(=O)[nH]3)cc21 [Compound #57, 3-(3-(5-(dimethylamino)-1,3,4-oxadiazol-2-yl)pentan-3-yl)-6-(1-ethyl-4-fluoro-1H-indazol-6-yl)pyridin-2(1H)-one]	6
CCn1ncc2c(F)cc(-c3ccc(C(CC)(CC)Cc4ncc[nH]4)c(=O)[nH]3)cc21 [compound 20, 3-(3-((1H-imidazol-2-yl)methyl)pentan-3-yl)-6-(1-ethyl-4-fluoro-1H-indazol-6-yl)pyridin-2(1H)-one]	11
CCn1ncc2c(F)cc(-c3ccc(C4CC5CN(C(=O)NC(C)C)CC5C4)c(=O)[nH]3)cc21 (stereo not drawn) [compound 209, 5-(6-(1-ethyl-4-fluoro-1H-indazol-6-yl)-2-oxo-1,2-dihydropyridin-3-yl)-N-isopropyl-hexahydrocyclopenta[c]pyrrole-2(1H)-carboxamide]	20
CC(C)c1cccc2ccc(-c3ccc(C(/C=C4\OC(=O)NC4=O)C(C)C)c(=O)[nH]3)cc12 (stereo not drawn) [compound 135, (Z)-5-(2-(6-(8-isopropylnaphthalen-2-yl)-2-oxo-1,2-dihydropyridin-3-yl)-3-methylbutylidene)oxazolidine-2,4-dione]	85
CCn1ncc2c(F)cc(-c3ccc(C4(C(C)C)OCCNC4=O)c(=O)[nH]3)cc21 (stereo not drawn) [compound 248, 2-(6-(1-ethyl-4-fluoro-1H-indazol-6-yl)-2-oxo-1,2-dihydropyridin-3-yl)-2-isopropylmorpholin-3-one]	10
CCn1ncc2c(F)cc(-c3ccc(C(CC4CCNC4=O)C(C)C)c(=O)[nH]3)cc21 (stereo not drawn) [compound 147, Syn-6-(1-ethyl-4-fluoro-1H-indazol-6-yl)-3-(3-methyl-1-(2-oxopyrrolidin-3-yl)butan-2-yl)pyridin-2(1H)-one]	632
CCn1ncc2c(F)cc(-c3ccc(C4CC5COC(=O)N5C4)c(=O)[nH]3)cc21 (stereo not drawn) [compound 215, 6-(6-(1-ethyl-4-fluoro-1H-indazol-6-yl)-2-oxo-1,2-dihydropyridin-3-yl)tetrahydro-1H,3H-pyrrolo[1,2-c]oxazol-3-one]	165
CCC(/C=C1\OC(=O)NC1=O)(CC)c1ccc(-c2ccc3cccc(C(F)(F)F)c3c2)[nH]c1=O [compound 23, 5-(2-ethyl-2-(2-oxo-6-(8-(trifluoromethyl)naphthalen-2-yl)-1,2-dihydropyridin-3-yl)butylidene)oxazolidine-2,4-dione]	228
CCn1ncc2c(F)cc(-c3ccc(C(CC)(CC)CC4CCCNC4=O)c(=O)[nH]3)cc21 (stereo not drawn) [compound 58, 6-(1-ethyl-4-fluoro-1H-indazol-6-yl)-3-(3-((2-oxopiperidin-3-yl)methyl)pentan-3-yl)pyridin-2(1H)-one]	7
CCn1ncc2c(F)cc(-c3ccc(C(CC)(CC)c4nnc(C(F)(F)F)o4)c(=O)[nH]3)cc21 [Compound #45, 6-(1-ethyl-4-fluoro-1H-indazol-6-yl)-3-(3-(5-(trifluoromethyl)-1,3,4-oxadiazol-2-yl)pentan-3-yl)py-ridine-2(1H)-one]	59
CC(C)C(/C=C1\OC(=O)NC1=O)c1ccc(-c2ccc3cccc(C#N)c3c2)[nH]c1=O (mixture of isomers) [compound 142, (Z)-7-(5-(1-(2,4-dioxooxazolidin-5-ylidene)-3-methylbutan-2-yl)-6-oxo-1,6-dihydropyridin-2-yl)-1-naphthonitrile]	121
CCn1ncc2c(F)cc(-c3[nH]c(=O)c(C(CC)(CC)CC4=CCNC4=O)cc3F)cc21 [compound 46, 6-(1-ethyl-4-fluoro-1H-indazol-6-yl)-5-fluoro-3-(3-((2-oxo-2,5-dihydro-1H-pyrrol-3-yl)methyl)pentan-3-yl)pyridin-2(1H)-one]	452
CCC(/C=C1/OC(=O)NC1=O)(CC)c1ccc(-c2ccc3cc(F)cc(F)c3c2)[nH]c1=O [compound 32, (E)-5-(2-(6-(6,8-difluoronaphthalen-2-yl)-2-oxo-1,2-dihydropyridin-3-yl)-2-ethylbutylidene)oxazolidine-2,4-dione]	292
CCn1ncc2c(F)cc(-c3ccc(C(C(C)C)n4cnnc4)c(=O)[nH]3)cc21 (stereo not drawn) [Compound #172, 6-(1-ethyl-4-fluoro-1H-indazol-6-yl)-3-(2-methyl-1-(4H-1,2,4-triazol-4-yl)propyl)pyridin-2(1H)-one]	25
CCn1ncc2c(F)cc(-c3ccc(C(CC4CCNC4=O)C(C)C)c(=O)[nH]3)cc21 (stereo not drawn) [compound 148, anti-6-(1-ethyl-4-fluoro-1H-indazol-6-yl)-3-(3-methyl-1-(2-oxopyrrolidin-3-yl)butan-2-yl)pyridin-2(1H)-one]	787
